Source: patent publication US9676720B2, “Substituted biaryl compound” (UBE INDUSTRIES, LTD., priority 2013, dated 2017)

Legend:
human EP2 receptor = human EP2 receptor (Homo sapiens (Human), UniProt P43116); assay: Measurement of EP2 receptor binding action; settings: membrane fraction of HEK293 cells expressing human EP2 receptor; [3H]prostaglandin E2 10 nM
Experimental: The membrane fraction was recovered on glass fiber filter paper (GF/B, manufactured by Whatman) using a cell harvester (M30R, manufactured by Brandel), and after washing with a buffer solution (10 mM MES-KOH (pH 6.0), 10 mM MgCl2), radioactivity was measured with a liquid scintillation analyzer (2000CA, manufactured by Packard). […] Ki=IC50/(1+([^3H]prostaglandin E2 concentration/Kd))
Note that the dissociation constant (Kd value) was calculated by Scatchard analysis.

[1] = tested on: Pulmonary fibroblasts derived from a human fetus (IMR90); assay: Test for inhibition of pulmonary fibroblast proliferation (BrdU incorporation); type: cell-based; settings: IMR90; FGF 10 ng/mL; BrdU incorporation; read-out: IC50 value (nM) of inhibition effect of pulmonary fibroblast proliferation
Experimental: Measurement of inhibition effect of pulmonary fibroblast proliferation was performed by modifying the method of Huang et al. (American Journal of Respiratory Cell and Molecular Biology, 39, 482 (2008)). Pulmonary fibroblasts derived from a human fetus (IMR90, purchased from American Type Culture Collection) were cultured in DMEM medium containing 10% FBS and seeded at 1×10^4 cells/well of a 96-well plate. After culturing for approximately 8 hours in a carbon dioxide incubator, the medium was replaced with FBS-free DMEM medium and the culturing was performed for one night. On the following day, the medium was replaced with a new FBS-free DMEM medium, and then a test compound dissolved in dimethyl sulfoxide (final concentration: 0.1%) and FGF (final concentration: 10 ng/mL, manufactured by Wako Pure Chemical Industries, Ltd.) were added thereto and allowed to stand undisturbed in a carbon dioxide incubator. After 22 hours, a BrdU labeling solution (manufactured by Roche) was added and culturing was performed for another 2 hours. After the completion of the culturing, amount of BrdU incorporation was measured using Cell Proliferation ELISA BrdU (colorimetric) (manufactured by Roche). The concentration of the test compound required to inhibit BrdU incorporation to 50% (IC50 value) was calculated by non-linear regression of the test compound concentration and the amount of BrdU incorporation using EXSAS (Ver. 8.0.0, manufactured by Arm Systex).

Sequence of human EP2 receptor (P43116 whole entry): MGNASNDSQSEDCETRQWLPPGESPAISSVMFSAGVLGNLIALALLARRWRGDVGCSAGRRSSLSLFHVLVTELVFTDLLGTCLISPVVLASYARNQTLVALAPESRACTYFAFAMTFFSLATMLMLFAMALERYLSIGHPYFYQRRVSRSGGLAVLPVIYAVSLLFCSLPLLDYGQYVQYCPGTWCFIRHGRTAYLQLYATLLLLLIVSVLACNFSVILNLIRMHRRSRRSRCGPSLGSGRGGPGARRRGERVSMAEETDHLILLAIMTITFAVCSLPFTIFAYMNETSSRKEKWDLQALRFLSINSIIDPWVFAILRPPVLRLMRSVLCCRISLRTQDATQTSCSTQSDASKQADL

CC#Cc1cccc(-c2ccc(CN(Cc3cccc(NCC(=O)O)n3)S(=O)(=O)c3ccsc3)cc2)c1 [Example 18]
Ki (human EP2 receptor): 0.99 nM
IC50 [1]: 0.0042 nM
